Measured values reported in ChEMBL document CHEMBL4229438, “N-Acylhydrazones as drugs” (Bioorg Med Chem Lett, 2018).
Values belong to the compound of their own block, whether it stands above or below them.

What was measured:
[1] = molecular target: T1, Caspase-3 (Mus musculus) (UniProt P70677); details: 4T1, 5 uM
T1 sequence (whole entry): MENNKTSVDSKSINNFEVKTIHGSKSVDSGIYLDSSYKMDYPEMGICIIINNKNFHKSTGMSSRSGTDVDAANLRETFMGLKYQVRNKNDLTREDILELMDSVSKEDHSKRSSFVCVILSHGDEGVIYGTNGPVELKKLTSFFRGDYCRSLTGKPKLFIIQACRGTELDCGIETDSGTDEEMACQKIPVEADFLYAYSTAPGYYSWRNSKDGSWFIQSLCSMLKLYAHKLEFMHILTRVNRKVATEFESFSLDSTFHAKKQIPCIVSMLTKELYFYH
Description: Activation of procaspase-3 in mouse 4T1 cells assessed as increase in cell death by measuring combination index at 5 uM after 24 hrs in presence of 50 nM doxorubucin by alamar blue assay

[2] = molecular target: T1, Caspase-3 (Mus musculus); details: 15 uM
Description: Activation of procaspase-3 in mouse B16F10 cells assessed as increase in cell death by measuring combination index at 15 uM after 24 hrs in presence of 100 nM doxorubucin by alamar blue assay

[3] = molecular target: T1, Caspase-3 (Mus musculus); details: 2.5 uM
Description: Activation of procaspase-3 in mouse K7M2 cells assessed as increase in cell death by measuring combination index at 2.5 uM after 24 hrs in presence of 10 nM doxorubucin by alamar blue assay

[4] = molecular target: T1, Caspase-3 (Mus musculus); details: 5 uM
Description: Activation of procaspase-3 in mouse K7M2 cells assessed as increase in cell death by measuring combination index at 5 uM after 24 hrs in presence of 50 nM doxorubucin by alamar blue assay

[5] = molecular target: T1, Caspase-3 (Mus musculus); details: 7.5 uM
Description: Activation of procaspase-3 in mouse B16F10 cells assessed as increase in cell death by measuring combination index at 7.5 uM after 24 hrs in presence of 10 nM doxorubucin by alamar blue assay

[6] = molecular target: T1, Caspase-3 (Mus musculus); details: 7.5 uM; remark: listed apart in the source
Description: Activation of procaspase-3 in mouse B16F10 cells assessed as increase in cell death by measuring combination index at 7.5 uM after 24 hrs in presence of 25 nM doxorubucin by alamar blue assay

[7] = molecular target: T1, Caspase-3 (Mus musculus); details: 2.5 uM; remark: listed apart in the source
Description: Activation of procaspase-3 in mouse 3LL cells assessed as increase in cell death by measuring combination index at 2.5 uM after 24 hrs in presence of 250 nM doxorubucin by alamar blue assay

[8] = molecular target: T1, Caspase-3 (Mus musculus); details: 4T1, 2.5 uM
Description: Activation of procaspase-3 in mouse 4T1 cells assessed as increase in cell death by measuring combination index at 2.5 uM after 24 hrs in presence of 250 nM doxorubucin by alamar blue assay

[9] = molecular target: T1, Caspase-3 (Mus musculus); details: EL4, 5 uM
Description: Activation of procaspase-3 in mouse EL4 cells assessed as increase in cell death by measuring combination index at 5 uM after 24 hrs in presence of 2500 nM doxorubucin by alamar blue assay

[10] = molecular target: T1, Caspase-3 (Mus musculus); details: 4T1, 5 uM; remark: listed apart in the source
Description: Activation of procaspase-3 in mouse 4T1 cells assessed as increase in cell death by measuring combination index at 5 uM after 24 hrs in presence of 10 nM doxorubucin by alamar blue assay

[11] = molecular target: T1, Caspase-3 (Mus musculus); details: 5 uM; remark: listed apart in the source
Description: Activation of procaspase-3 in mouse K7M2 cells assessed as increase in cell death by measuring combination index at 5 uM after 24 hrs in presence of 250 nM doxorubucin by alamar blue assay

[12] = molecular target: T1, Caspase-3 (Mus musculus); details: 7.5 uM; remark: listed apart in the source
Description: Activation of procaspase-3 in mouse B16F10 cells assessed as increase in cell death by measuring combination index at 7.5 uM after 24 hrs in presence of 250 nM doxorubucin by alamar blue assay

[13] = molecular target: T1, Caspase-3 (Mus musculus); details: EL4, 10 uM
Description: Activation of procaspase-3 in mouse EL4 cells assessed as increase in cell death by measuring combination index at 10 uM after 24 hrs in presence of 1500 nM doxorubucin by alamar blue assay

[14] = molecular target: T1, Caspase-3 (Mus musculus); details: EL4, 5 uM; remark: listed apart in the source
Description: Activation of procaspase-3 in mouse EL4 cells assessed as increase in cell death by measuring combination index at 5 uM after 24 hrs in presence of 500 nM doxorubucin by alamar blue assay

[15] = molecular target: T1, Caspase-3 (Mus musculus); details: 2.5 uM; remark: listed apart in the source
Description: Activation of procaspase-3 in mouse 3LL cells assessed as increase in cell death by measuring combination index at 2.5 uM after 24 hrs in presence of 100 nM doxorubucin by alamar blue assay

[16] = molecular target: T1, Caspase-3 (Mus musculus); details: 4T1, 2.5 uM; remark: listed apart in the source
Description: Activation of procaspase-3 in mouse 4T1 cells assessed as increase in cell death by measuring combination index at 2.5 uM after 24 hrs in presence of 100 nM doxorubucin by alamar blue assay

[17] = molecular target: T1, Caspase-3 (Mus musculus); details: 2.5 uM; remark: listed apart in the source
Description: Activation of procaspase-3 in mouse 3LL cells assessed as increase in cell death by measuring combination index at 2.5 uM after 24 hrs in presence of 50 nM doxorubucin by alamar blue assay

[18] = molecular target: T1, Caspase-3 (Mus musculus); details: 7.5 uM; remark: listed apart in the source
Description: Activation of procaspase-3 in mouse 3LL cells assessed as increase in cell death by measuring combination index at 7.5 uM after 24 hrs in presence of 25 nM doxorubucin by alamar blue assay

[19] = molecular target: T1, Caspase-3 (Mus musculus); details: 7.5 uM; remark: listed apart in the source
Description: Activation of procaspase-3 in mouse 3LL cells assessed as increase in cell death by measuring combination index at 7.5 uM after 24 hrs in presence of 250 nM doxorubucin by alamar blue assay

[20] = molecular target: T1, Caspase-3 (Mus musculus); details: 4T1, 2.5 uM; remark: listed apart in the source
Description: Activation of procaspase-3 in mouse 4T1 cells assessed as increase in cell death by measuring combination index at 2.5 uM after 24 hrs in presence of 50 nM doxorubucin by alamar blue assay

[21] = molecular target: T1, Caspase-3 (Mus musculus); details: 7.5 uM; remark: listed apart in the source
Description: Activation of procaspase-3 in mouse 3LL cells assessed as increase in cell death by measuring combination index at 7.5 uM after 24 hrs in presence of 100 nM doxorubucin by alamar blue assay

[22] = molecular target: T1, Caspase-3 (Mus musculus); details: EL4, 5 uM; remark: listed apart in the source
Description: Activation of procaspase-3 in mouse EL4 cells assessed as increase in cell death by measuring combination index at 5 uM after 24 hrs in presence of 100 nM doxorubucin by alamar blue assay

[23] = molecular target: T1, Caspase-3 (Mus musculus); details: EL4, 10 uM; remark: listed apart in the source
Description: Activation of procaspase-3 in mouse EL4 cells assessed as increase in cell death by measuring combination index at 10 uM after 24 hrs in presence of 2500 nM doxorubucin by alamar blue assay

[24] = molecular target: T1, Caspase-3 (Mus musculus); details: EL4, 10 uM; remark: listed apart in the source
Description: Activation of procaspase-3 in mouse EL4 cells assessed as increase in cell death by measuring combination index at 10 uM after 24 hrs in presence of 100 nM doxorubucin by alamar blue assay

[25] = molecular target: T1, Caspase-3 (Mus musculus); details: 5 uM; remark: listed apart in the source
Description: Activation of procaspase-3 in mouse K7M2 cells assessed as increase in cell death by measuring combination index at 5 uM after 24 hrs in presence of 100 nM doxorubucin by alamar blue assay

[26] = molecular target: T1, Caspase-3 (Mus musculus); details: 4T1, 5 uM; remark: listed apart in the source
Description: Activation of procaspase-3 in mouse 4T1 cells assessed as increase in cell death by measuring combination index at 5 uM after 24 hrs in presence of 100 nM doxorubucin by alamar blue assay

[27] = molecular target: T1, Caspase-3 (Mus musculus); details: 15 uM; remark: listed apart in the source
Description: Activation of procaspase-3 in mouse B16F10 cells assessed as increase in cell death by measuring combination index at 15 uM after 24 hrs in presence of 50 nM doxorubucin by alamar blue assay

[28] = molecular target: T1, Caspase-3 (Mus musculus); details: 5 uM; remark: listed apart in the source
Description: Activation of procaspase-3 in mouse K7M2 cells assessed as increase in cell death by measuring combination index at 5 uM after 24 hrs in presence of 10 nM doxorubucin by alamar blue assay

[29] = molecular target: T1, Caspase-3 (Mus musculus); details: 2.5 uM; remark: listed apart in the source
Description: Activation of procaspase-3 in mouse K7M2 cells assessed as increase in cell death by measuring combination index at 2.5 uM after 24 hrs in presence of 100 nM doxorubucin by alamar blue assay

[30] = molecular target: T1, Caspase-3 (Mus musculus); details: 7.5 uM; remark: listed apart in the source
Description: Activation of procaspase-3 in mouse 3LL cells assessed as increase in cell death by measuring combination index at 7.5 uM after 24 hrs in presence of 50 nM doxorubucin by alamar blue assay

[31] = molecular target: T1, Caspase-3 (Mus musculus); details: 5 uM; remark: listed apart in the source
Description: Activation of procaspase-3 in mouse K7M2 cells assessed as increase in cell death by measuring combination index at 5 uM after 24 hrs in presence of 25 nM doxorubucin by alamar blue assay

[32] = molecular target: T1, Caspase-3 (Mus musculus); details: 4T1, 2.5 uM; remark: listed apart in the source
Description: Activation of procaspase-3 in mouse 4T1 cells assessed as increase in cell death by measuring combination index at 2.5 uM after 24 hrs in presence of 25 nM doxorubucin by alamar blue assay

[33] = molecular target: T1, Caspase-3 (Mus musculus); details: 4T1, 5 uM; remark: listed apart in the source
Description: Activation of procaspase-3 in mouse 4T1 cells assessed as increase in cell death by measuring combination index at 5 uM after 24 hrs in presence of 250 nM doxorubucin by alamar blue assay

[34] = molecular target: T1, Caspase-3 (Mus musculus); details: 7.5 uM; remark: listed apart in the source
Description: Activation of procaspase-3 in mouse B16F10 cells assessed as increase in cell death by measuring combination index at 7.5 uM after 24 hrs in presence of 50 nM doxorubucin by alamar blue assay

[35] = molecular target: T1, Caspase-3 (Mus musculus); details: 7.5 uM; remark: listed apart in the source
Description: Activation of procaspase-3 in mouse 3LL cells assessed as increase in cell death by measuring combination index at 7.5 uM after 24 hrs in presence of 10 nM doxorubucin by alamar blue assay

[36] = molecular target: T1, Caspase-3 (Mus musculus); details: 4T1, 2.5 uM; remark: listed apart in the source
Description: Activation of procaspase-3 in mouse 4T1 cells assessed as increase in cell death by measuring combination index at 2.5 uM after 24 hrs in presence of 10 nM doxorubucin by alamar blue assay

[37] = molecular target: T1, Caspase-3 (Mus musculus); details: 7.5 uM; remark: listed apart in the source
Description: Activation of procaspase-3 in mouse B16F10 cells assessed as increase in cell death by measuring combination index at 7.5 uM after 24 hrs in presence of 100 nM doxorubucin by alamar blue assay

[38] = molecular target: T1, Caspase-3 (Mus musculus); details: 15 uM; remark: listed apart in the source
Description: Activation of procaspase-3 in mouse B16F10 cells assessed as increase in cell death by measuring combination index at 15 uM after 24 hrs in presence of 10 nM doxorubucin by alamar blue assay

[39] = molecular target: T1, Caspase-3 (Mus musculus); details: EL4, 10 uM; remark: listed apart in the source
Description: Activation of procaspase-3 in mouse EL4 cells assessed as increase in cell death by measuring combination index at 10 uM after 24 hrs in presence of 500 nM doxorubucin by alamar blue assay

[40] = molecular target: T1, Caspase-3 (Mus musculus); details: EL4, 5 uM; remark: listed apart in the source
Description: Activation of procaspase-3 in mouse EL4 cells assessed as increase in cell death by measuring combination index at 5 uM after 24 hrs in presence of 1500 nM doxorubucin by alamar blue assay

[41] = molecular target: T1, Caspase-3 (Mus musculus); details: 2.5 uM; remark: listed apart in the source
Description: Activation of procaspase-3 in mouse K7M2 cells assessed as increase in cell death by measuring combination index at 2.5 uM after 24 hrs in presence of 50 nM doxorubucin by alamar blue assay

[42] = molecular target: T1, Caspase-3 (Mus musculus); details: 2.5 uM; remark: listed apart in the source
Description: Activation of procaspase-3 in mouse K7M2 cells assessed as increase in cell death by measuring combination index at 2.5 uM after 24 hrs in presence of 25 nM doxorubucin by alamar blue assay

[43] = molecular target: T1, Caspase-3 (Mus musculus); details: 2.5 uM; remark: listed apart in the source
Description: Activation of procaspase-3 in mouse 3LL cells assessed as increase in cell death by measuring combination index at 2.5 uM after 24 hrs in presence of 25 nM doxorubucin by alamar blue assay

[44] = molecular target: T1, Caspase-3 (Mus musculus); details: 4T1, 5 uM; remark: listed apart in the source
Description: Activation of procaspase-3 in mouse 4T1 cells assessed as increase in cell death by measuring combination index at 5 uM after 24 hrs in presence of 25 nM doxorubucin by alamar blue assay

[45] = molecular target: T1, Caspase-3 (Mus musculus); details: 2.5 uM; remark: listed apart in the source
Description: Activation of procaspase-3 in mouse K7M2 cells assessed as increase in cell death by measuring combination index at 2.5 uM after 24 hrs in presence of 250 nM doxorubucin by alamar blue assay

[46] = molecular target: T1, Caspase-3 (Mus musculus); details: EL4, 5 uM; remark: listed apart in the source
Description: Activation of procaspase-3 in mouse EL4 cells assessed as increase in cell death by measuring combination index at 5 uM after 24 hrs in presence of 1000 nM doxorubucin by alamar blue assay

[47] = molecular target: T1, Caspase-3 (Mus musculus); details: EL4, 10 uM; remark: listed apart in the source
Description: Activation of procaspase-3 in mouse EL4 cells assessed as increase in cell death by measuring combination index at 10 uM after 24 hrs in presence of 1000 nM doxorubucin by alamar blue assay

[48] = molecular target: T1, Caspase-3 (Mus musculus); details: 15 uM; remark: listed apart in the source
Description: Activation of procaspase-3 in mouse B16F10 cells assessed as increase in cell death by measuring combination index at 15 uM after 24 hrs in presence of 25 nM doxorubucin by alamar blue assay

[49] = molecular target: T1, Caspase-3 (Mus musculus); details: 15 uM; remark: listed apart in the source
Description: Activation of procaspase-3 in mouse B16F10 cells assessed as increase in cell death by measuring combination index at 15 uM after 24 hrs in presence of 250 nM doxorubucin by alamar blue assay

[50] = molecular target: T1, Caspase-3 (Mus musculus); details: 2.5 uM; remark: listed apart in the source
Description: Activation of procaspase-3 in mouse 3LL cells assessed as increase in cell death by measuring combination index at 2.5 uM after 24 hrs in presence of 10 nM doxorubucin by alamar blue assay

[51] = molecular target: Muscarinic acetylcholine receptor M3 (Rattus norvegicus, UniProt P08483); test: Agonist activity at endothelial M3 receptor in Wistar-Kyoto rat thoracic aortic rings assessed as inhibition of phenylephrine-induced contraction; format: functional
[52] = test system: HL-60; test: Cytotoxicity against human HL60 cells; format: functional, cell-based
[53] = test system: HCT-8; test: Cytotoxicity against human HCT8 cells; format: functional, cell-based
[54] = test system: OVCAR-8; test: Cytotoxicity against human OVCAR8 cells; format: functional, cell-based
[55] = test system: HL-60; test: Cytotoxicity against human HL60 cells by MTT assay; format: functional, cell-based
[56] = Half life in patient with solid tumor at 230 mg/m2, iv treated for 30 mins by HPLC-MS analysis; format: ADME, organism-based; details: human, in vivo
[57] = test system: Thoracic aorta; test: Vasodilatory activity in Wistar rat thoracic aortic rings assessed as inhibition of noradrenaline-induced contraction; format: functional, tissue-based
[58] = Stability in rat plasma assessed as parent compound remaining at 100 uM after 10 hrs by LC-MS analysis; format: ADME, cell-free; details: read-out: Stability

Chain of Muscarinic acetylcholine receptor M3 (P08483 whole entry): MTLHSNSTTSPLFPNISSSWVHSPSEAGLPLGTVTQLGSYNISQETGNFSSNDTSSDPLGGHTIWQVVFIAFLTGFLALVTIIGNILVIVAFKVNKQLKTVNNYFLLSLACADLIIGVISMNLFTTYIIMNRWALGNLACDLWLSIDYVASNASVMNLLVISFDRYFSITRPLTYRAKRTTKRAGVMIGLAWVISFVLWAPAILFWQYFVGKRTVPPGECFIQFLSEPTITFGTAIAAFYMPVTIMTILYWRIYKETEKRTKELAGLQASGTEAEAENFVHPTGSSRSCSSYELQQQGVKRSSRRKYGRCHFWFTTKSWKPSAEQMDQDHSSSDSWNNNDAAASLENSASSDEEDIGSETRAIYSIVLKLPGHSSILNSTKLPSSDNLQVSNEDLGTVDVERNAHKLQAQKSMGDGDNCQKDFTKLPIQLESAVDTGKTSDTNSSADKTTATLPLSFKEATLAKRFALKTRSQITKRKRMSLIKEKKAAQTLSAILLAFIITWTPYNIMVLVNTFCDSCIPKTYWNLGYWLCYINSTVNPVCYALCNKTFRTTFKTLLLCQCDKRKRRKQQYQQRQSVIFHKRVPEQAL

Compound: C=CCc1cccc(/C=N/NC(=O)CN2CCN(Cc3ccccc3)CC2)c1O
CI [1]: 0.86 to 24.1
CI [2]: 0.53 to 40.7
CI [3]: 0.97 to 12.8
CI [4]: 0.73 to 26.6
CI [5]: 0.66 to 17.8
CI [6]: 0.76 to 18.2
CI [7]: 0.17 to 79.6
CI [8]: 0.47 to 49.7
CI [9]: 0.3 to 55.6
CI [10]: 0.74 to 23.3
CI [11]: 0.67 to 55.9
CI [12]: 0.42 to 58.2
CI [13]: 0.37 to 46.7
CI [14]: 0.77 to 24
CI [15]: 0.48 to 55.7
CI [16]: 0.84 to 21.5
CI [17]: 0.71 to 28.9
CI [18]: 0.41 to 32.3
CI [19]: 0.28 to 86.3
CI [20]: 0.95 to 15.5
CI [21]: 0.32 to 66.8
CI [22]: 1.38 to 11.7
CI [23]: 0.21 to 61.4
CI [24]: 0.9 to 18.2
CI [25]: 0.49 to 42.8
CI [26]: 0.86 to 28
CI [27]: 0.72 to 29
CI [28]: 0.56 to 26.4
CI [29]: 0.66 to 28.1
CI [30]: 0.44 to 41.3
CI [31]: 0.61 to 26.8
CI [32]: 0.79 to 15
CI [33]: 0.42 to 57.2
CI [34]: 0.84 to 20.1
CI [35]: 0.36 to 27.8
CI [36]: 0.89 to 12.2
CI [37]: 0.65 to 31
CI [38]: 0.83 to 22.5
CI [39]: 0.69 to 27.7
CI [40]: 0.63 to 38
CI [41]: 0.88 to 16.7
CI [42]: 0.84 to 15.2
CI [43]: 0.72 to 20.3
CI [44]: 0.81 to 23.1
CI [45]: 0.93 to 39.6
CI [46]: 0.79 to 30.3
CI [47]: 0.53 to 37
CI [48]: 0.84 to 23.9
CI [49]: 0.39 to 62.2
CI [50]: 0.54 to 18.3

Compound: O=C(N/N=C/c1ccsc1)c1ccc2c(c1)OCO2
IC50 [51]: 350 nM

Compound: COc1cc(C(=O)N/N=C/c2cc3ccccc3s2)cc(OC)c1OC
IC50 [52]: 0.4 nM
IC50 [53]: 5 nM
IC50 [54]: 9 nM

Compound: COc1cc(C(=O)N(C)/N=C/c2ccccc2)cc(OC)c1OC
IC50 [55]: 30 nM

Second part, the compound after the results:

half-life [56]: 20.1 to 21.1 h
Compound: COc1cccc2c1C(=O)c1c(O)c3c(c(O)c1C2=O)C[C@@](O)(/C(CO)=N/NC(=O)CCCCCN1C(=O)C=CC1=O)C[C@@H]3OC1C[C@H](N)[C@H](O)[C@H](C)O1 (stereo partly drawn)

IC50 [57]: 74000 nM
Compound: O=C(N/N=C/c1cccs1)c1ccc2c(c1)OCO2

remaining at 10 h, 100 µM [58]: > 93%
Compound: O=C(N/N=C/c1ccccc1B(O)O)c1ccncc1
